Measurements taken from US11053250B2, “Pyrrolo[1,2-b]pyridazine derivatives” (Gilead Sciences, Inc., priority 2018, dated 2021).

Experiments:
IRAK4 enzyme = IRAK4 enzyme (Homo sapiens (Human), UniProt Q9NWZ3); experiment: IRAK4 Biochemical Assay (TR-FRET/HTRF); conditions: 0.75 nM IRAK4, 500 μM ATP, STK1 peptide
Experimental: IRAK4 enzyme (Carna Biosciences, Chuo-ku, Kobe, Japan) activity was measured by detecting phosphorylated peptide substrate formation using an antibody against the phosphorylated peptide substrate. This is a time-resolved fluorescence resonance energy transfer (TR-FRET) immunoassay, based on the STK1 KinEASE Assay (Cisbio, Bedford, Mass.). The assay was designed as a simple two-step, endpoint assay (a 5 μl enzyme reaction followed by 5 μl stop and detect Solution) performed in ProxiPlate-384 Plus plates (Perkin Elmer, Waltham, Mass.). Staurosporine, a non-selective kinase inhibitor was used as a positive control. Compounds diluted in DMSO were spotted into 384 well plates using a Labcyte® Echo 550 Liquid Handling System prior to addition of IRAK4 enzyme and peptide substrate. Reaction solutions were delivered using a Multi-Flo (Bio-Tek Instruments). The enzyme and peptide solution was incubated with compound for 15 minutes at room temp before the reaction was initiated by the addition of ATP. The standard 5 μl reaction mixture contained 500 μM ATP, 2 μM peptide (STK1 Peptide), 0.75 nM of IRAK4 in reaction buffer (50 mM HEPES, pH 7.0, 0.02% NaN3, 0.01% BSA, 0.1 mM Orthovanadate, 5 mM MgCl2, 0.025% NP-40, 1 mM DTT). After 120 min of incubation at room temperature, 5 μl of Stop and Detect Solution (1:100 Cryptate labeled anti-phosphorylated peptide antibody solution and 125 nM Tracer in a 50 mM HEPES pH 7.0 detection buffer containing sufficient EDTA) was added. The plate was then further incubated for 60 minutes at room temperature and read on Envision 2103 Multilabeled reader (PerkinElmer) with excitation/emission/FRET emission at 340 nm/615 nm/665 nm, respectively. Fluorescence intensities at 615 nm and 665 nm emission wavelengths were expressed as a ratio (665 nm/615 nm). Percentage of inhibition was calculated as below: % Inhibition=100×(RatioSample−Ratio0% Inhibition)/(Ratio100% Inhibition−Ratio0% Inhibition)
The 0% inhibition value comes from control wells lacking inhibitor. The 100% inhibition value comes from control wells containing a saturating amount of known inhibitor staurosporine.

TNFα = experiment: IRAK4 Monocyte TNFα Cell Based Assay; conditions: cryopreserved human monocytes, LPS 50 pg/ml stimulation, TNFα by TR-FRET
Experimental: The cell suspension was then plated at a density of 5,000 cells/well onto black 384 well Greiner clear bottom plates. Plates were pre-spotted with test compounds and serially diluted in DMSO where 40 nL/well were delivered using the Echo 550 acoustic liquid dispenser (Labcyte®) for a final DMSO concentration of 0.1%. Plated cells were treated with compound for 1 hour at 37° C. Cells were then stimulated with 50 pg/ml of LPS (Sigma) excluding outside columns of plate used for unstimulated cell control wells. Cells were incubated for an additional 4 hours at 37° C. Cells were then spun out of the media and 5 μl of sample were taken and analyzed for total TNFα content using the TR-FRET Human TNFα detection system (CisBio). This system utilizes two labeled antibodies (cryptate and XL665) that bind to two different epitopes of the TNFα molecule and produce FRET signal proportional to the concentration of TNFα in the sample. Detection antibodies are mixed 50:50 and 5 μL were dispensed into each well. Plates were covered with clear seals and incubated at room temp overnight. The following morning plates were read using an Envision 2103 Multilabeled reader (PerkinElmer) with excitation/emission/FRET emission at 340 nm/615 nm/665 nm, respectively. Fluorescence intensities at 615 nm and 665 nm emission wavelengths were expressed as a ratio (665 nm/615 nm). Percent of control was calculated as follows: % Control=100×(RatioSample−Ratio0% stimulation)/(Ratio100% Stimulation−Ratio0% stimulation) where unstimulated cells (0% stimulation) were the negative control and stimulated cells (100% stimulation) were used as the positive control.

Chain of IRAK4 enzyme (Q9NWZ3 whole entry): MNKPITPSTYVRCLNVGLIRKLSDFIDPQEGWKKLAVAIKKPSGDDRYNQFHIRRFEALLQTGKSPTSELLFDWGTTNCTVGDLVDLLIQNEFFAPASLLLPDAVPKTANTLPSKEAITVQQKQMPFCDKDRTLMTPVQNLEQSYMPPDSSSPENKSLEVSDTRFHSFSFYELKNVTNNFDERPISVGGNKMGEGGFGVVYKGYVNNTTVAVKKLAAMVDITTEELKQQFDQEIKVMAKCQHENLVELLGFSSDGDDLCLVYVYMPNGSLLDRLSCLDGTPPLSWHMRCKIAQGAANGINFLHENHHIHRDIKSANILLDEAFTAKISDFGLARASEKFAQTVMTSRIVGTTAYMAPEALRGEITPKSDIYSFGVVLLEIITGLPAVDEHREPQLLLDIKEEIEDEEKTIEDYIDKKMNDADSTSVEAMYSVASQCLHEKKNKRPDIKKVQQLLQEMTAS

| IC50 (IRAK4 enzyme) [nM] | EC50 (TNFα; Monocyte) [nM] | EC50 (TNFα) [nM] | Structure (SMILES) |
| --- | --- | --- | --- |
| 14 | 1120 |  | CC(C)Nc1cc(-c2ccc3cc(C#N)cnn23)ncc1-c1cn(C23CC(C2)C3)nn1 [Compound 57, 7-(5-(1-(bicyclo[1.1.1]pentan-1-yl)-1H-1,2,3-triazol-4-yl)-4-(isopropylamino)pyridin-2-yl)pyrrolo[1,2-b]pyridazine-3-carbonitrile] |
| 4 | 238 |  | CC(C)Nc1cc(-c2ccc3cc(C#N)cnn23)ncc1-c1cn(CC(C)(C)O)nn1 [Compound 50, 7-(5-(1-(2-hydroxy-2-methylpropyl)-1H-1,2,3-triazol-4-yl)-4-(isopropylamino)pyridin-2-yl)pyrrolo[1,2-b]pyridazine-3-carbonitrile] |
| < 1 | 9 |  | Cn1cc(-c2cnc(-c3ccc4cc(C#N)cnn34)cc2NC23CCC(O)(CC2)CC3)nn1 [Compound 21, 7-(4-((4-hydroxybicyclo[2.2.2]octan-1-yl)amino)-5-(1-methyl-1H-1,2,3-triazol-4-yl)pyridin-2-yl)pyrrolo[1,2-b]pyridazine-3-carbonitrile] |
| < 1 |  | 17 | COC(=O)NCC1CC(Nc2cc(-c3ccc4cc(C#N)cnn34)ncc2-c2cn(CC3CC(O)C3)nn2)C1 [Compound 8, methyl (((1R,3r)-3-((2-(3-cyanopyrrolo[1,2-b]pyridazin-7-yl)-5-(1-(((1s,3S)-3-hydroxycyclobutyl)methyl)-1H-1,2,3-triazol-4-yl)pyridin-4-yl)amino)cyclobutyl)methyl)carbamate] |
| < 1 | 5 |  | CC(C)(O)[C@H](F)Cn1cc(-c2cnc(-c3ccc4cc(C#N)cnn34)cc2N[C@H]2CCC[C@@H](O)C2)nn1 [Compound 13, 7-(5-(1-((R)-2-fluoro-3-hydroxy-3-methylbutyl)-1H-1,2,3-triazol-4-yl)-4-(((1S,3R)-3-hydroxycyclohexyl)amino)pyridin-2-yl)pyrrolo[1,2-b]pyridazine-3-carbonitrile] |
| 1 | 85 |  | CNC(=O)Cn1cc(-c2cnc(-c3ccc4cc(C#N)cnn34)cc2NC(C)C)nn1 [Compound 45, 2-(4-(6-(3-cyanopyrrolo[1,2-b]pyridazin-7-yl)-4-(isopropylamino)pyridin-3-yl)-1H-1,2,3-triazol-1-yl)-N-methylacetamide] |
| < 1 |  | 9 | COC(=O)NC[C@H]1C[C@H](Nc2cc(-c3ccc4cc(C#N)cnn34)ncc2-c2cn([C@H]3CC[C@H](NC(=O)C4CC4)CC3)nn2)C1 [Compound 19, methyl (((1R,3r)-3-((2-(3-cyanopyrrolo[1,2-b]pyridazin-7-yl)-5-(1-((1r,4R)-4-(cyclopropanecarboxamido)cyclohexyl)-1H-1,2,3-triazol-4-yl)pyridin-4-yl)amino)cyclobutyl)methyl)carbamate] |
| < 1 | 33 |  | CC(C)Nc1cc(-c2ccc3cc(C#N)cnn23)ncc1-c1cn(CCN2CCOCC2)nn1 [Compound 47, 7-(4-(isopropylamino)-5-(1-(2-morpholinoethyl)-1H-1,2,3-triazol-4-yl)pyridin-2-yl)pyrrolo[1,2-b]pyridazine-3-carbonitrile] |
| 3 |  | 145 | COC(=O)NC[C@H]1C[C@H](Nc2cc(-c3ccc4cc(C#N)cnn34)ncc2-c2nnn(C[C@@H](F)C(C)(C)O)c2F)C1 [Compound 5, methyl (((1R,3r)-3-((2-(3-cyanopyrrolo[1,2-b]pyridazin-7-yl)-5-(5-fluoro-1-((R)-2-fluoro-3-hydroxy-3-methylbutyl)-1H-1,2,3-triazol-4-yl)pyridin-4-yl)amino)cyclobutyl)methyl)carbamate] |
| < 1 |  | 6 | CC(C)(O)[C@H](F)Cn1cc(-c2cnc(-c3ccc4cc(C#N)cnn34)cc2N[C@H]2CC[C@H](c3nncs3)CC2)nn1 [Compound 38, 7-(4-(((1r,4R)-4-(1,3,4-thiadiazol-2-yl)cyclohexyl)amino)-5-(1-((R)-2-fluoro-3-hydroxy-3-methylbutyl)-1H-1,2,3-triazol-4-yl)pyridin-2-yl)pyrrolo[1,2-b]pyridazine-3-carbonitrile] |
| 2 | 184 |  | CC(C)Nc1cc(-c2ccc3cc(C#N)cnn23)ncc1-n1cc(C2CCOCC2)nn1 [Compound 60, 7-(4-(isopropylamino)-5-(4-(tetrahydro-2H-pyran-4-yl)-1H-1,2,3-triazol-1-yl)pyridin-2-yl)pyrrolo[1,2-b]pyridazine-3-carbonitrile] |
| 3 |  | 18 | CC(C)(O)[C@H](F)Cn1cc(-c2cnc(-c3ccc4cc(C#N)cnn34)cc2N[C@H]2CC[C@H](c3cnn(C(F)F)c3)CC2)nn1 [Compound 15, 7-(4-(((1r,4R)-4-(1-(difluoromethyl)-1H-pyrazol-4-yl)cyclohexyl)amino)-5-(1-((R)-2-fluoro-3-hydroxy-3-methylbutyl)-1H-1,2,3-triazol-4-yl)pyridin-2-yl)pyrrolo[1,2-b]pyridazine-3-carbonitrile] |
| < 1 |  | 6 | COC(=O)NC[C@H]1C[C@H](Nc2cc(-c3ccc4cc(C#N)cnn34)ncc2-c2cn(C[C@@H](F)C(C)(C)O)nn2)C1 [Compound 39, methyl (((1R,3r)-3-((2-(3-cyanopyrrolo[1,2-b]pyridazin-7-yl)-5-(1-((R)-2-fluoro-3-hydroxy-3-methylbutyl)-1H-1,2,3-triazol-4-yl)pyridin-4-yl)amino)cyclobutyl)methyl)carbamate] |
| 1 |  | 33 | COC(=O)NC[C@H]1C[C@H](Nc2cc(-c3ccc4cc(C#N)cnn34)ncc2-c2cn(CC#N)nn2)C1 [Compound 16, methyl (((1r,3r)-3-((5-(1-(cyanomethyl)-1H-1,2,3-triazol-4-yl)-2-(3-cyanopyrrolo[1,2-b]pyridazin-7-yl)pyridin-4-yl)amino)cyclobutyl)methyl)carbamate] |
| < 1 |  | 12 | COC(=O)NCC1CC(Nc2cc(-c3ccc4cc(C#N)cnn34)ncc2-c2cn(C3CC(O)C3)nn2)C1 [Compound 7, methyl (((1R,3r)-3-((2-(3-cyanopyrrolo[1,2-b]pyridazin-7-yl)-5-(1-((1r,3R)-3-hydroxycyclobutyl)-1H-1,2,3-triazol-4-yl)pyridin-4-yl)amino)cyclobutyl)methyl)carbamate] |
| 2 | 171 |  | CC(C)Nc1cc(-c2ccc3cc(C#N)cnn23)ncc1-c1cn(C2COC2)nn1 [Compound 53, 7-(4-(isopropylamino)-5-(1-(oxetan-3-yl)-1H-1,2,3-triazol-4-yl)pyridin-2-yl)pyrrolo[1,2-b]pyridazine-3-carbonitrile] |
| < 1 |  | 19 | COC(=O)NCC1CC(Nc2cc(-c3ccc4cc(C#N)cnn34)ncc2-c2cn(CC3CC(O)C3)nn2)C1 [Compound 6, methyl (((1R,3r)-3-((2-(3-cyanopyrrolo[1,2-b]pyridazin-7-yl)-5-(1-(((1r,3R)-3-hydroxycyclobutyl)methyl)-1H-1,2,3-triazol-4-yl)pyridin-4-yl)amino)cyclobutyl)methyl)carbamate] |
| 1 |  | 20 | COC(=O)NCC1CC(Nc2cc(-c3ccc4cc(C#N)cnn34)ncc2-c2cn(C3CC(CNC(=O)OC)C3)nn2)C1 [Compound 10, methyl (((1R,3r)-3-((2-(3-cyanopyrrolo[1,2-b]pyridazin-7-yl)-5-(1-((1r,3R)-3-(((methoxycarbonyl)amino)methyl)cyclobutyl)-1H-1,2,3-triazol-4-yl)pyridin-4-yl)amino)cyclobutyl)methyl)carbamate] |
